# Ends that are not written are not given here.
# Test system: SIRT6
# Assay: SIRT6 expression by immunohistochemistry in Normal Human Epidermal Keratinocytes
# Assay type: cell-based
# Details: 1% and 3% of a 50 ppm peptide solution, 48 h treatment, FIG. 2
# Description: SIRT6 is a member of the conserved family of sirtuin proteins which are associated with metabolism and longevity. SIRT6 is a histone 3, lysine 9 (H3K9) deacetylase and is primarily involved in DNA repair and telomere stability. The peptide of (SEQ ID No. 5) Gly-Ala-Gly-Val-Ser-Ala-Glu-NH2 was tested for Sirt6 stimulating activity as follows.
# • Normal Human Epidermal Keratinocytes p3 • EpiLife Medium (Invitrogen) • Human Keratinocyte Growth Supplement (Invitrogen) • 1× Dulbecco's Phosphate Buffered Saline (DPBS) made from: • 10× DPBS (Mediatech) • Distilled, Deionized Water • Peptide of SEQ ID No. 5 • Rabbit polyclonal antibody to Sirt6 (Abcam) • Alexa Fluor 488 donkey anti-rabbit IgG (H+L) (Invitrogen) • Triton-X 100 (Fisher) • Albumin, Bovine (Sigma) • Vectashield with 4′,6-diamidino-2-phenylindole (DAPI) (Vector)
# • 1. Cells were plated into 4 well chamber slides @ 10,000 cells/chamber and incubated at 37° C., 5% CO2 & 95% humidity for 24 hours. • 2. The peptide of SEQ ID No. 5 was prepared as follows: • 2.1. Dissolved 5 mg peptide in 5 ml medium to make a 1000 ppm stock solution. • 2.2. Diluted the stock solution to 50 ppm by combining 400 μl 1000 ppm stock solution with 7.6 ml medium • 2.3. Prepared a 3% of the 50 ppm solution by combining 1.5 ml 50 ppm stock with 48.5 ml medium • 2.4. Prepared a 1% of the 50 ppm solution by combining 0.5 ml 50 ppm stock with […] medium • 3. […]
substance,measurement,value
Gly-Ala-Gly-Val-Ser-Ala-Glu-NH2 (GAGVSAE-NH2) [SEQ ID No. 5],SIRT6 expression,dose dependent increase in SIRT6 expression

# From US20150098963A1, “METHODS AND COMPOSITIONS FOR IMPROVING THE APPEARANCE OF SKIN” (priority 2013, published 2015)
